# Patent US20240033237A1, “USE OF A-KETOGLUTARATE IN MANUFACTURE OF MEDICAMENT” (TONGJI UNIVERSITY, priority 2019, published 2024)
# How the values were obtained:
# [1] = system: chondrocytes; experiment: Synthetic phenotype of IL-1β-stimulated mouse chondrocytes (whole-genome sequencing, q-PCR, western blot); format: cell-based
# Method: (§1) Mouse chondrocytes were obtained from 7-day-old C57BL/6 mice (Shanghai Slac laboratory animal Co., Ltd.), and the procedure was as follows: under aseptic surgical conditions, bilateral knee cartilages of C57 mice were carefully stripped and digested with 0.2% neutral collagenase (Serva, Germany) for 8 h; cell precipitates were obtained by centrifugation, and the cells were resuspended in modified Eagle medium (DMEM) (Gibco, USA) containing 10% FBS, inoculated in culture dishes, and cultured with high-sugar DMEM medium (containing 10% FBS, 100 U/mL penicillin and 100 mg/L streptomycin) at 37° C. in a 5% CO2 constant temperature incubator. The medium was changed for the first time at 48 h. […] The cells were collected by centrifugation and resuspended, and the concentration was adjusted for inoculation in culture dishes. The cells were subcultured by the above method, and the obtained cells were labeled as P1, P2, P3 generations, etc.
# (2) Real-Time Fluorescent Quantitative PCR (Real Time q-PCR) Analysis • 1) The P1 generation mouse chondrocytes cultured in Embodiment 1 were used, the culture medium was sucked out from the culture dish, and the cells were washed once with PBS. • 2) Extraction of total RNA • 1. chloroform (⅕ volume of RNAiso Plus) was added to the homogenate lysate, the cover of the centrifuge tube was closed tightly, and the centrifuge tube was shaken violently by hand for 15 seconds. […]
# P1 generation mouse chondrocytes cultured in Embodiment 1 were subjected to western blot analysis through operations including the following: • 1. […] The protein concentration was determined by the BCA Protein Quantification Kit. […]
# [2] = system: chondrocytes; experiment: Catabolic phenotype of IL-1β-stimulated mouse chondrocytes (whole-genome sequencing, q-PCR, western blot); format: cell-based
# Method: as §1
# (2) Real-Time Fluorescent Quantitative PCR (Real Time q-PCR) Analysis • 1) The P1 generation mouse chondrocytes cultured in Embodiment 1 were used, the culture medium was sucked out from the culture dish, and the cells were washed once with PBS. • 2) Extraction of total RNA • 1. chloroform (⅕ volume of RNAiso Plus) was added to the homogenate lysate, the cover of the centrifuge tube was closed tightly, and the centrifuge tube was shaken violently by hand for 15 seconds. After the solution is fully emulsified (without phase separation phenomenon), the centrifuge tube was allowed to stand at room temperature for 5 minutes. • 2. the centrifuge tube was centrifuged at 12000 g under 4° C. for 5 minutes. • 3. the centrifuge tube was carefully taken out from the centrifugal machine, at this time the homogenate was divided into three layers: a colorless supernatant, a white protein layer in the middle, and a lower organic phase with color. […] Precipitate usually occurs at the bottom of a test tube after centrifugation.
# On ice, SYBR Premix Ex Taq, upstream and downstream primers of catabolic and synthetic genes of chondrocytes, ROX Reference Dye, cDNA template and dH2O were added into a test tube. After being mixed evenly, the mixture was evenly divided into PCR tubes. The PCR tubes were placed in a Q-PCR instrument to detect the product.
# P1 generation mouse chondrocytes cultured in Embodiment 1 were subjected to western blot analysis through operations including the following: • 1. Collecting of protein samples: The culture medium was sucked out, and the cells were washed twice with PBS at 4° C. and then dried. 100 μl of cell lysate was added to each well, the cells were lysed on ice for 10 min, and collected into a 1.5 ml centrifuge tube. […] The protein concentration was determined by the BCA Protein Quantification Kit. […]
# [3] = system: articular cartilage; experiment: Mouse model of knee osteoarthritis (DMM), intra-articular injection, Safranin-O/fast green staining and OARSI score; format: in vivo, C57BL/6 mice; conditions: 8 weeks after DMM surgery, once a week, 5 times
# Text: Male C57BL/6 mice (n=30) were purchased from Shanghai Slac laboratory animal Co., Ltd. and reared to 8 weeks of age. The animal experimental operation method was reviewed and approved by the Ethics Committee of Tongji University School of Medicine. Male C57BL/6 mice reared to 8 weeks of age were anaesthetized, and a longitudinal incision was made in the medial side of the knee joint. The articular cavity was opened along the medial side of the patellar ligament, the fat pad in the intercondylar area was bluntly separated, and the meniscus tibial ligament connecting the medial meniscus was found and transected. The incision was closed after hemostasis by compression, and the mice were continued to be fed. The mice were anesthetized and sacrificed at 4, 8 and 12 weeks after surgery (n=8 for each group), and the knee joints were isolated for histological examination, forming the treatment group. Male C57BL/6 mice reared to 8 weeks of age were anaesthetized, and a longitudinal incision was made in the medial side of the knee joint. […] The damage degree of articular cartilage was observed by Safranin-O/ fast green staining and quantitatively evaluated by OARSI score. […]
structure (smiles),measurement,setting,value
"COC(=O)CCC(=O)C(=O)OC [α-KG, dimethyl-α-ketoglutarate]","expressions of chondrocyte synthetic genes SOX9, COL2A1, ACAN","[1]; q-PCR, 10 ng/ml IL-1β + 7 mM α-KG",promote the expressions
same,protein expressions of chondrocyte synthetic genes SOX9 and COL2A,"[1]; western blot, 6 h, 12 h, 24 h, 36 h, 10 ng/ml IL-1β + 7 mM α-KG",promote the protein expressions
same,"expressions of synthetic phenotypic genes (SOX9, COL2A1, ACAN, COL9A1, COL9A2, COL9A3, COL11A1, COL11A2) of chondrocytes","[1]; whole-genome sequencing, 24 h, 10 ng/ml IL-1β + 7 mM α-KG vs IL-1β group",increased
same,"gene and protein expressions of catabolic phenotypic genes MMP3, MMP13, ADAMTS5, NOS2 at different time periods","[2]; q-PCR and western blot, 6 h, 12 h, 24 h, 36 h, 10 ng/ml IL-1β + 7 mM α-KG",could inhibit the gene and protein expressions
same,"expression of cartilage catabolic phenotypic genes MMP3, MMP13, ADAMTS5, NOS2","[2]; q-PCR, 24 h, 10 ng/ml IL-1β + 7 mM α-KG",inhibit the expression
same,"protein expression of cartilage catabolic phenotypic genes MMP3, MMP13, ADAMTS5, NOS2","[2]; western blot, 24 h, 10 ng/ml IL-1β + 7 mM α-KG",inhibited the protein expression
same,"expressions of catabolic phenotypes (metalloproteases MMP2, MMP3, MMP8, MMP9, MMP12, MMP13, MMP27; aggrecanases ADAMTS5, 7, 12, 15, 16, 17; NOS2) of chondrocytes","[2]; whole-genome sequencing, 10 ng/ml IL-1β + 7 mM α-KG vs IL-1β group",suppressed
same,"OARSI score, damage degree of articular cartilage",[3],significantly inhibit the progression of osteoarthritis
same,cartilage damage / progression of osteoarthritis (Safranin O/fast green histology),[3]; DMM+αKG group vs DMM group,no significant cartilage damage
